Where no end group is shown, it is not given here.
Tests used:
[1] = system: ipsilateral (ischemic) hemisphere of a brain; experiment: In vivo screening of phage-displayed CX7C peptide library, frequency of selected clones; details: 30 phage clones randomly selected in second and third rounds, rat with occluded MCA
[2] = system: β-tubulin-positive neuron cell and GFAP-positive astrocyte in the ischemic brain tissue; experiment: Immunofluorescence staining for the type of cells bound to the peptide (anti-tubulin, anti-GFAP); assay type: in vivo, rat; details: 24 hours after ischemic injury
ischemic stroke tissue [3] = experiment: In vivo targeting of fluorescein-labeled peptide, fluorescence microscopy of frozen sections with TTC and TUNEL staining; design: species or system rat; details: for targeting to the contralateral tissue / targeting to the ipsilateral tissue: fluorescein peptide into left ventricle 24 hours after ischemic injury
ischemic stroke tissue [4] = experiment: Autoradiogram of absorption of 131I-labeled peptide in ischemic stroke tissue; assay type: in vivo, rat
[5] = tail vein 24 hours after ischemic injury, 1-hour circulation

Substance: CKRGGATAC (Stroke-targeting peptide 2)
- Frequency (%) [1]: (23%)
- Frequency (clones with the sequence / clones sequenced) [1]: 7/30

Substance: CLEVSRKNC (Stroke-targeting peptide 1)
- Frequency (%) [1]: (30%)
- Frequency (clones with the sequence / clones sequenced) [1]: 9/30
- co-localisation with GFAP-positive astrocyte in the ischemic brain tissue [2]: did not correspond
- co-localisation with β-tubulin-positive neuron cell in the ischemic brain tissue [2]: corresponded to the position of β-tubulin-positive neuron cell
- targeting in a neuron cell and an astrocyte in the contralateral brain tissue [2]: not observed
- targeting to the ischemic hemisphere (ischemic stroke tissue [3]; 2-hour circulation (data not noted)): targeted to the ischemic hemisphere
- targeting to control group organs (spleen, liver, lung) (ischemic stroke tissue [3]; 15-minute circulation): little
- region of the stroke tissue where targeting was observed (ischemic stroke tissue [3]; 15-minute circulation, TTC staining): observed in a penumbra
- binding to TUNEL-stained apoptotic cells in the penumbra (ischemic stroke tissue [3]; TUNEL staining of frozen sections): most of the apoptotic cells stained with TUNEL, except for some of them, were bound
- targeting to the contralateral tissue (ischemic stroke tissue [3]; 15-minute circulation): not targeted to the contralateral tissue
- targeting to the ipsilateral tissue (ischemic stroke tissue [3]; 15-minute circulation): targeted to the ipsilateral tissue

Substance: CNSREVLKC [CNSREVLKC peptide, reference compound]
- targeting to the contralateral tissue (ischemic stroke tissue [3]; 15-minute circulation): not observed
- targeting to the ipsilateral tissue (ischemic stroke tissue [3]; 15-minute circulation): not observed

Substance: CRSAVAKNC (Stroke-targeting peptide 3)
- Frequency (%) [1]: (17%)
- Frequency (clones with the sequence / clones sequenced) [1]: 5/30

Substance: CTKRNAPDC (Stroke-targeting peptide 4)
- Frequency (%) [1]: (10%)
- Frequency (clones with the sequence / clones sequenced) [1]: 3/30

Substance: ^131I-CLEVSRKNC peptide: CLEVSRKNC peptide (SEQ ID NO: 1) labeled with radioisotope 131I (cysteine pairing not given here; also: 131I radiolabel)
- absorption in a general brain of a control group rat (ischemic stroke tissue [4]; 1-hour circulation): insufficient
- absorption rate by optically stimulated luminescence (ischemic stroke tissue [4]; 4 coronal sections, third day vs first and seventh day, P<0.01): very high absorption rate on the third day
- time course of absorption in ischemic tissue after ischemic injury (ischemic stroke tissue [4]; first, third and seventh day after ischemic injury): reached a peak on the third day
- absorption in the contralateral region (ischemic stroke tissue [4]; [5]): insufficient
- absorption in the ipsilateral hemisphere (ischemic stroke tissue [4]; [5]): observed in the ipsilateral hemisphere

Reference: US8748398B2, “Stroke-targeting peptide and use thereof” (Kyungpook National University Industry-Academic Cooperation …, priority 2008, dated 2014)
